Laboratory results taken from patent EP4722219A1 (Gan & Lee Pharmaceuticals Co., Ltd., priority 2023, dated 2024).
Positions count from the first letter of the chain named. Values belong to the compound of their own block, whether it stands above or below them.

Tests used:
Format in all cases: cell-based
T-47D cells = assay: Inhibition of cell proliferation in T-47D cells (CCK-8); conditions: 6 days treatment, CCK-8 cell viability
Procedure: Test Example 2 Inhibitory effect of PROTAC compounds provided by the present invention on cell proliferation in T-47D cells
The complete culture medium required for T-47D cells is 1640 (ATCC, Product number: A10491-01) basal culture medium containing 10% fetal bovine serum. T-47D cells were seeded in 96-well plates at a density of 3,000 cells/well, and different concentrations of PROTAC compounds 1-55 provided in the examples of the present invention and positive control sample ARV-471 (source: Inokai) were prepared to treat the cells and incubated at 37 °C, 5% CO2 cell culture incubator for 6 days. According to the manufacturer's instructions, cell viability was detected using a CCK-8 kit (Beyotime, Product number: C0040). The IC50 of each compound after treating for 6 days was calculated using GraphPadPrism software based on the inhibition rate. Table 2 Inhibition IC50 value of T-47D cell proliferation by PROTAC compounds provided by the present invention and positive control sample

MCF-7 cells = assay: Inhibition of cell proliferation in MCF-7 cells (CCK-8); conditions: Homo sapiens, MCF7, 144 h, MCF-7 cell proliferation, 6 days treatment
Procedure: Test Example 3 Inhibitory effect of PROTAC compounds provided by the present invention on cell proliferation in MCF-7 cells
The complete culture medium required for MCF-7 cells (source ATCC) is DMEM (gibco, Product number: 11995-065) basal culture medium containing 10% fetal bovine serum. MCF-7 cells were seeded in 96-well plates at a density of 800 cells/well, and different concentrations of PROTAC compounds 1-55 provided in the examples of the present invention and positive control sample ARV-471 (source: Inokai) were prepared to treat the cells and incubated at 37 °C, 5% CO2 cell culture incubator for 6 days. According to the manufacturer's instructions, cell viability was detected using a CCK-8 kit (Beyotime, Product number: C0040). The IC50 of each PROTAC compound after treating for 6 days was calculated using GraphPadPrism software based on the inhibition rate. Table 3 Inhibition IC50 value of MCF-7 cell proliferation by PROTAC compounds of the present invention and positive control sample

AR protein [1] = target: T1, AR protein (Homo sapiens, UniProt P10275, T878A); assay: AR protein degradation in LNCaP cells (Western blot); conditions: 8 hours
T1 construct: host or cells: LNCaP FGC
T1 sequence (P10275 1-920 T878A): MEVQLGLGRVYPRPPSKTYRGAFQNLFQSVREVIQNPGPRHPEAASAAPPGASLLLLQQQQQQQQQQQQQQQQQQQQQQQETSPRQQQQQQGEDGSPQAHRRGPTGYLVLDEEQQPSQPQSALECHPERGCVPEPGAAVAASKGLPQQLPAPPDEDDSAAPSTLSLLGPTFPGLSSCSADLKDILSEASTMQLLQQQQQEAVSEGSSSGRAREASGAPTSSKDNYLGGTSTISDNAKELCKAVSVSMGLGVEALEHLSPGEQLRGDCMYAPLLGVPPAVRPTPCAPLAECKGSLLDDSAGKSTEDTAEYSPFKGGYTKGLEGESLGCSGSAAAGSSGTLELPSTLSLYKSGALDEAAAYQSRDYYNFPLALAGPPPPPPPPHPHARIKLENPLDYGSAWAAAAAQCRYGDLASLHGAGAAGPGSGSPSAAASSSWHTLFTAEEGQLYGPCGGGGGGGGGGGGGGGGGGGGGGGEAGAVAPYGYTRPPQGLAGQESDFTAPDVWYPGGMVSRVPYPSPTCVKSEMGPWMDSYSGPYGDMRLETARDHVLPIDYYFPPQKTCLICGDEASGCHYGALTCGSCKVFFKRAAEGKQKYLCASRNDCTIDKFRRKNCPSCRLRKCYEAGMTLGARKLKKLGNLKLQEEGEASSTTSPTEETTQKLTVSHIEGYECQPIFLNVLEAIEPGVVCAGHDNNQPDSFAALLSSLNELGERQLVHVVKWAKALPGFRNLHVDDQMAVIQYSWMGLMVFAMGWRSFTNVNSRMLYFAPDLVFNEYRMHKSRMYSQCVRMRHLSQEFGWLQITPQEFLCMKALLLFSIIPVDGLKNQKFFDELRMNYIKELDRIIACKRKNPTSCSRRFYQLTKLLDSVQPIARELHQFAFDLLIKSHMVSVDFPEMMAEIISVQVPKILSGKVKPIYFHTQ
Procedure: At the same time, the corresponding solvent control was set and cultured for 8 hours. After 8 hours of culture, the culture medium was removed, the cells were washed with PBS, and RIPA lysis buffer containing 1% Protease Inhibitor Cocktail was added. After lysis and centrifugation, the total protein extract was obtained, and the protein concentration in the extract was detected by BCA method. Protein electrophoresis was performed using SDS-PAGE, and then the protein was transferred to a PVDF (Millipore Sigma catalog number PSRP010R5) membrane at a constant voltage of 100V for 60 minutes. The PVDF membrane was placed in a 5% milk powder 1 ×TBST solution and blocked at room temperature for 1 hour. […] The primary antibody solution was discarded and the PVDF membrane was washed with 1×TBST for 5 minutes each time, for three times. […] The secondary antibody solution was discarded and the PVDF membrane was washed with 1 ×TBST for 5 minutes each time, for three times. A dual-color infrared laser imaging system (Licor catalog number Odyssey CLX) was used for Western membrane imaging. The Image Studio software was used to analyze the grayscale of the bands. GAPDH protein bands were also detected for each sample as the reference. The AR protein degradation rate of the compound and the positive control sample was calculated based on the grayscale of the protein bands.

AR protein [2] = target: T2, AR protein (Homo sapiens, UniProt P10275); assay: AR protein degradation in VCaP cells (Western blot); conditions: 8h
T2 construct: host or cells: VCaP
T2 sequence (P10275 1-920): T1 sequence (P10275 1-920 T878A) with A878T
Procedure: The degradation activity of the compounds disclosed in the present invention on AR protein in VCaP cells (cell source: ATCC)
The AR-positive human prostate cancer cells VCaP cultured in DMEM (GiBco catalog number 11995-065) containing 10% FBS (Hyclone catalog number SH30406.05) was inoculated in a six-well microplate (Thermo catalog number 140675) at a concentration of 3×10^5 cells/ well. After being cultured overnight in a carbon dioxide incubator (ESCO), the prepared compound of the present invention and the positive control sample ARV-766 (Annaiji) solution of different concentrations were added at a volume of 1 µL/well to make the final concentrations of the compound and the positive control sample reach 5nM and 0.5nM, respectively. At the same time, the corresponding solvent control was set and cultured for 8h. After 8h of culture, the culture medium was removed, and the cells were washed with PBS. RIPA lysis buffer containing 1% Protease Inhibitor Cocktail was added. After lysis and centrifugation, a total protein extract was obtained, and the protein concentration in the extract was detected by BCA method. Protein electrophoresis was performed using SDS-PAGE, and then the protein was transferred to a PVDF (Millipore Sigma catalog number PSRP010R5) membrane at a constant voltage of 100V for 60min. The PVDF membrane was placed in a 5% milk powder 1×TBST solution and blocked at room temperature for 1h. The primary antibody solution (Anti-Androgen receptor, Cell Signaling Technology catalog number: 5153S; 1:2000 dilution) was prepared and was incubated at 4°C overnight. The primary antibody solution was discarded and the PVDF membrane was washed with 1×TBST for 5 minutes each time, for three times. The secondary antibody solution (Thermo catalog number SA5-35571; 1:7500 dilution) was prepared and was incubated at room temperature for 1 hour. The secondary antibody solution was discarded and the PVDF membrane was washed with 1×TBST for 5 minutes each time, for three times. A dual-color infrared laser imaging system (Licor catalog number Odyssey CLX) was used for Western membrane imaging. Image Studio software was used to analyze the grayscale of the bands. GAPDH protein bands were also detected for each sample as the reference. The AR protein degradation rate of the compound and the positive control sample was calculated based on the grayscale of the protein bands.
Table 7 Degradation rate of AR protein in VCaP cells by the compounds disclosed in the present invention

Compound: Cn1c(=O)n(C2CCC(=O)NC2=O)c2ccc3c(c21)OCC31CCN(C2CCN(C3CCN(c4ccc([C@@H]5c6ccc(O)cc6CC[C@@H]5c5ccccc5)cc4)CC3)CC2)CC1 (some centres unmarked)
IC50 (T-47D cells; Homo sapiens, T47D, 144 h): 1.71 nM
IC50 (MCF-7 cells): 11.7 nM

Compound: COc1cc(O[C@H]2C(C)(C)[C@H](NC(=O)c3ccc(N4CCC(CN5CCC6(CC5)COc5c6ccc6c5n(C)c(=O)n6C5CCC(=O)NC5=O)CC4)nn3)C2(C)C)ccc1C#N (relative stereo) [A-P-27]
Degradation of AR protein in LNCaP cells, 10 nM (%) (AR protein [1]; 10 nM): 43%
Degradation of AR protein in LNCaP cells, 100 nM (%) (AR protein [1]; 100 nM): 43%
Degradation rate of AR protein in VCaP cells (AR protein [2]; 0.5 nM): 78%
Degradation rate of AR protein in VCaP cells (AR protein [2]; 5 nM): 80%

Compound: COc1cc(O[C@H]2CC[C@H](NC(=O)c3ccc(N4CCC5(CC4)CC(N4CCC6(CC4)COc4cc7c(cc46)n(C)c(=O)n7C4CCC(=O)NC4=O)C5)nn3)CC2)ccc1C#N (some centres unmarked) [A-P-11]
percent AR protein degradation at a fixed concentration at 0.01 µM (AR protein [1]; 10 nM): 76%
percent AR protein degradation at a fixed concentration at 0.1 µM (AR protein [1]; 100 nM): 32%

IC50 (T-47D cells; Homo sapiens, T47D, 144 h): 1.18 nM
IC50 (MCF-7 cells): 8.27 nM
Compound: Cn1c(=O)n(C2CCC(=O)NC2=O)c2ccc3c(c21)OCC31CCN(C(=O)CN2CCC3(CCN(c4ccc([C@@H]5c6ccc(O)cc6CC[C@@H]5c5ccccc5)cc4)CC3)C2)CC1 (stereo partly drawn) [ER-P-68, 3-(1'-(2-(8-(4-((1R,2S)-6-hydroxy-2-phenyl-1,2,3,4-tetrahydronaphthalen-1-yl)phenyl)-2,8-diazaspiro[4.5]decan-2-yl)acetyl)-1-methyl-2-oxo-1,2-dihydro-3H,7H-spiro[benzofuro[6,7-d]imidazole-6,4'-piperidin]-3-yl)piperidine-2,6-dione]

IC50 (T-47D cells; Homo sapiens, T47D, 144 h): 0.28 nM
IC50 (MCF-7 cells): 1.43 nM
Compound: Cn1c(=O)n(C2CCC(=O)NC2=O)c2cc3c(cc21)C1(CCN(C(=O)CN2CCC4(CCN(c5ccc([C@@H]6c7ccc(O)cc7CC[C@@H]6c6ccccc6)cc5)CC4)C2)CC1)CO3 (stereo partly drawn) [ER-P-69, 3-(1'-(2-(8-(4-((1R,2S)-6-hydroxy-2-phenyl-1,2,3,4-tetrahydronaphthalen-1-yl)phenyl)-2,8-diazaspiro[4.5]decan-2-yl)acetyl)-1-methyl-2-oxo-1,2-dihydro-3H,6H-spiro[benzofuro[5,6-d]imidazole-7,4'-piperidin]-3-yl)piperidine-2,6-dione]

Compound: Cn1c(=O)n(C2CCC(=O)NC2=O)c2ccc3c(c21)OCC31CCN(CC2CC(OC3CCN(c4ccc([C@@H]5c6ccc(O)cc6CC[C@@H]5c5ccccc5)cc4)CC3)C2)CC1 (stereo partly drawn) [ER-P-80, 3-(1'-(((1S,3s)-3-((1-(4-((1R,2S)-6-hydroxy-2-phenyl-1,2,3,4-tetrahydronaphthalen-1-yl)phenyl)piperidin-4-yl)oxy)cyclobutyl)methyl)-1-methyl-2-oxo-1,2-dihydro-3H,7H-spiro[benzofuro[6,7-d]imidazole-6,4'-piperidin]-3-yl)piperidine-2,6-dione]
IC50 (T-47D cells): 0.9 nM

Compound: O=C1CCC(Nc2ccc3c(c2)OCC32CCN(CC3CC(OC4CCN(c5ccc([C@@H]6c7ccc(O)cc7CC[C@@H]6c6ccccc6)cc5)CC4)C3)CC2)C(=O)N1 (stereo partly drawn) [ER-P-92, 3-((1'-(((1S,3s)-3-((1-(4-((1R,2S)-6-hydroxy-2-phenyl-1,2,3,4-tetrahydronaphthalen-1-yl)phenyl)piperidin-4-yl)oxy)cyclobutyl)methyl)-2H-spiro[benzofuran-3,4'-piperidin]-6-yl)amino)piperidine-2,6-dione]
IC50 (T-47D cells): 4.56 nM
